# Source: paper PMC7796460, “Relation of Metal-Binding Property and Selective Toxicity of 8-Hydroxyquinoline Derived Mannich Bases Targeting Multidrug Resistant Cancer Cells” (Cancers, 2021)
# Assays:
# A431-B1 cells = assay: MTT viability assay, A431-B1; assay type: cell-based; settings: for IC50: 72 h, MTT 72 h
# Excerpt: (§1) MDCK II canine kidney cells, A431 epidermoid carcinoma cells, the human uterine sarcoma cell lines MES-SA and the doxorubicin selected MES-SA-Dx5 were obtained from ATCC (MDCK II: No. CRL-2936™, A431: No. CRL-1555™, MES-SA: No. CRL-1976™, MES-SA/Dx5: No. CRL-1977™). ABCB1 was expressed in A431 and MES-SA cells using lentiviral transduction. The human cervix carcinoma cell line KB-3-1 and the vinblastine selected KB-v1were kind gifts from Dr. Michael M. Gottesman, National Institutes of Health. The phenotype of the resistant cells was verified using cytotoxicity assays. MDCK-B1 and MDCK-MM were established by the Sleeping Beauty transposon-based gene delivery system. OVCAR-8 and NCI-ADRres cells (obtained from the Division of Cancer Treatment and Diagnosis (DCTD) Tumor Repository (National Cancer Institute, Frederick, MD, USA)) were cultivated in RPMI-1640 (Sigma Aldrich, Budapest, Hungary), and other cell lines were cultivated in Dulbecco’s Modified Eagle Medium (DMEM, Sigma Aldrich, Budapest, Hungary), supplemented with 10% fetal bovine serum, 5 mM glutamine, and 50 unit/mL penicillin and streptomycin (Life Technologies, Carlsbad, CA, USA). All cell lines were cultivated at 37 °C, 5% CO2.
# (§2) MTT viability assays were performed as described earlier with minor modifications. Briefly, cells were seeded into 96-well tissue culture plates (Sarstedt, Newton, NC, USA/Orange, Braine-l’Alleud, Belgium) at a density of 5000 cells/well and allowed to attach overnight. Test compounds were added to achieve the required final concentration in a final volume of 100 µL per well. After an incubation period of 72 h, the supernatant was removed and fresh medium containing the MTT reagent (0.083 mg/mL) was added. Incubation with MTT at 37 °C was terminated after 1 h by removing the supernatant and lysing the cells with 100 µL DMSO per well. Viability of the cells was measured spectrophotometrically based on the absorbance values at 540 nm using either a Perkin Elmer Victor X3 or an EnSpire microplate reader. Data were background corrected by subtraction of the signal obtained from unstained cell lysates and normalized to untreated cells. Curves were fitted by Prism software (GraphPad Software Inc., San Diego, CA, USA) using the sigmoidal dose-response model (comparing variable and fixed slopes). […] Significance was calculated using unpaired t-tests; results are given as *: p ≤ 0.05, **: p ≤ 0.01, ***: p ≤ 0.001, ****: p ≤ 0.0001.
# MES-SA/Dx5 cells [1] = assay: ROS determination with DCFDA, MES-SA/Dx5; assay type: cell-based, human; settings: 2 h
# Method: (§3) Measurements were performed as described earlier. Briefly, cells were harvested, washed with PBS, and incubated with 10 µM DCFDA in a water bath shaker at 37 °C for 30 min in a density of 3 × 10^6 cells/mL. After washing with PBS, cells were seeded to 96-well plates in PBS in a density of 2 × 10^4 cells/well. Following the measurement of the basal fluorescence, test compounds were added in different concentrations and the fluorescence of the samples was followed at time intervals of 10 min. DCFDA solution in buffer was used as a cell free control to test for interaction of the test compounds with DCFDA. Data were analyzed as fold change of fluorescence compared to basal levels and untreated cells. Significance was calculated using unpaired t-tests; results are given as *: p ≤ 0.05, **: p ≤ 0.01, ***: p ≤ 0.001, ****: p ≤ 0.0001.
# (§4) Table S3: Characterization of intracellular ROS production with the DCFDA assay for P -gp negative MES-SA and P-gp positive MES-SA/Dx5 cells. Fold changes in fluorescence are shown after a 2 h with the investigated 8 -hydroxyquinoline ligands. Data S-refer to Figure 7 and allow […]
# (§5) concentration range from 6.25µ M to 50µ M. Fold change of fluorescence obtained in the presence of 5 mM NAC is given in brackets.
# MDCK cells = assay: MTT viability assay, MDCK; assay type: cell-based, canine; settings: Canis lupus familiaris, 72 h, MTT 72 h
# Excerpt: as §1, §2
# MES-SA cells = assay: ROS determination with DCFDA, MES-SA; assay type: cell-based, human; settings: 2 h
# Method: as §3, §4, §5
# MES-SA/Dx5 cells [2] = assay: MTT viability assay, MES-SA/Dx5; assay type: cell-based, human; settings: for IC50: Homo sapiens, MES-SA/Dx5, Table S1, calculated as ligand equivalents, read-out: IC50 Dx5; for IC50 / SR: absence of TQ; for Effect of co-administration of CuCl2 on toxicity: MDR MES-SA/Dx5, increasing concentrations of CuCl2, MTT 72 h (Figure 2I-L); for Effect of co-incubation with iron(III) on cytotoxicity: MES-SA/Dx5, increasing concentrations of FeCl3, MTT 72 h (Figure 2A-D); for SR: Table S1, IC50 Pgp negative divided by Pgp positive cells; for SR_TQ: Table S1, presence of 1 µM TQ
# Excerpt: as §1, §2
# KB-v1 cells = assay: MTT viability assay, KB-v1; assay type: cell-based; settings: Homo sapiens, KB-V1, 72 h, MTT 72 h
# Excerpt: as §1, §2
# [3] = presence of 1 µM Tariquidar (values in brackets)
# [4] = IC50 A431 vs. A431-B1, absence of Tariquidar
# [5] = IC50 A431 vs. A431-B1, presence of 1 µM Tariquidar (brackets)
# [6] = MES-SA/Dx5, 6.25 µM, presence of 5 mM NAC (brackets)
# [7] = MES-SA/Dx5, 12.5 µM, presence of 5 mM NAC (brackets)
# [8] = MES-SA/Dx5, 25 µM, presence of 5 mM NAC (brackets)
# [9] = MES-SA/Dx5, 50 µM, presence of 5 mM NAC (brackets)
# [10] = 6.25 µM, presence of 5 mM NAC (brackets)
# [11] = 12.5 µM, presence of 5 mM NAC (brackets)
# [12] = 25 µM, presence of 5 mM NAC (brackets)
# [13] = 50 µM, presence of 5 mM NAC (brackets)
# [14] = IC50 MES-SA vs. MES-SA/Dx5, absence of Tariquidar
# [15] = IC50 MES-SA vs. MES-SA/Dx5, presence of 1 µM Tariquidar (brackets)
# [16] = Table 2, value in brackets (Tariquidar as in Table 1)
# [17] = Table 2, value outside brackets
IC50 (A431-B1 cells; absence of Tariquidar) [µM],IC50 (A431-B1 cells; [3]) [µM],SMILES,SR A431-B1 (A431-B1 cells; [4]),SR A431-B1 (A431-B1 cells; [5]),"Fold change in fluorescence (DCFDA) (MES-SA/Dx5 cells [1]; MES-SA/Dx5, 6.25 µM)",Fold change in fluorescence (DCFDA) (MES-SA/Dx5 cells [1]; [6]),"Fold change in fluorescence (DCFDA) (MES-SA/Dx5 cells [1]; MES-SA/Dx5, 12.5 µM)",Fold change in fluorescence (DCFDA) (MES-SA/Dx5 cells [1]; [7]),"Fold change in fluorescence (DCFDA) (MES-SA/Dx5 cells [1]; MES-SA/Dx5, 25 µM)",Fold change in fluorescence (DCFDA) (MES-SA/Dx5 cells [1]; [8]),"Fold change in fluorescence (DCFDA) (MES-SA/Dx5 cells [1]; MES-SA/Dx5, 50 µM)",Fold change in fluorescence (DCFDA) (MES-SA/Dx5 cells [1]; [9]),IC50 (MDCK cells; absence of Tariquidar) [µM],IC50 (MDCK cells; [3]) [µM],Fold change in fluorescence (DCFDA) (MES-SA cells; 6.25 µM),Fold change in fluorescence (DCFDA) (MES-SA cells; [10]),Fold change in fluorescence (DCFDA) (MES-SA cells; 12.5 µM),Fold change in fluorescence (DCFDA) (MES-SA cells; [11]),Fold change in fluorescence (DCFDA) (MES-SA cells; 25 µM),Fold change in fluorescence (DCFDA) (MES-SA cells; [12]),other results
4.05 ± 1.86,7.64,"Oc1c(CN2CCOCC2)ccc2cccnc12 [Compound Q-2, 7-(morpho-lino-methyl)quinolin-8-ol]",0.82,0.42,1.863± 0.81,1.024± 0.19,2.324± 1.25,1.137± 0.32,3.348± 2.35,1.074± 0.28,4.103± 2.67,1.154± 0.22,9.15 ± 3.51,11.1,1.598± 0.32,1.096± 0.16,1.792± 0.53,0.930± 0.16,2.101± 0.86,0.988± 0.15,Fold change in fluorescence (DCFDA) (MES-SA cells; 50 µM): 2.454± 1.39; Fold change in fluorescence (DCFDA) (MES-SA cells; [13]): 0.946± 0.14; IC50 (MES-SA/Dx5 cells [2]): 3.27 ± 0.39 µM; SR MES-SA/Dx5 (MES-SA/Dx5 cells [2]; [14]): 2.13; SR MES-SA/Dx5 (MES-SA/Dx5 cells [2]; [15]): 0.85; Effect of co-administration of CuCl2 on toxicity (MES-SA/Dx5 cells [2]): increased the toxicity; Effect of co-incubation with iron(III) on cytotoxicity (MES-SA/Dx5 cells [2]): selectively protected MES-SA/Dx5 cells; SR MES-SA/Dx5 (Table 2) (MES-SA/Dx5 cells [2]; [16]): 0.85; SR MES-SA/Dx5 (Table 2) (MES-SA/Dx5 cells [2]; [17]): 2.13; SR (MES-SA/Dx5 cells [2]): 2.13; SR_TQ (MES-SA/Dx5 cells [2]): 0.85; IC50 (KB-v1 cells; absence of Tariquidar): 6.42 ± 2.19 µM; IC50 (KB-v1 cells; [3]): 11.3 µM
1.14 ± 0.16,5.58,"Oc1c(CN2CCCCC2)ccc2cccnc12 [Compound Q-3, 7-(piperidin-1-ylmethyl)quinolin-8-ol]",3.96,0.73,1.449± 0.46,0.954± 0.15,1.400± 0.18,1.050± 0.09,1.586± 0.22,1.201± 0.17,1.786± 0.36,1.189± 0.18,7.61 ± 3.06,10.2,1.288± 0.24,1.097± 0.11,1.372± 0.22,1.080± 0.27,1.464± 0.39,1.119± 0.24,"Fold change in fluorescence (DCFDA) (MES-SA cells; 50 µM): 1.753± 0.37; Fold change in fluorescence (DCFDA) (MES-SA cells; [13]): 1.054± 0.25; IC50 (MES-SA/Dx5 cells [2]): 0.86 ± 0.26 µM; SR MES-SA/Dx5 (MES-SA/Dx5 cells [2]; [14]): 4.75; SR MES-SA/Dx5 (MES-SA/Dx5 cells [2]; [15]): 0.95; Effect of co-administration of CuCl2 on toxicity (MES-SA/Dx5 cells [2]): not further sensitized; Selective toxicity in the presence of 50 µM copper(II) (MES-SA/Dx5 cells [2]; MES-SA vs. MES-SA/Dx5, 50 µM copper(II)): completely abrogated; MDR-selective toxicity with excess iron ions (MES-SA/Dx5 cells [2]; MES-SA vs. MES-SA/Dx5, co-administered FeCl3): significantly reduced; Effect of co-incubation with iron(III) on cytotoxicity (MES-SA/Dx5 cells [2]): selectively protected MES-SA/Dx5 cells; SR MES-SA/Dx5 (Table 2) (MES-SA/Dx5 cells [2]; [16]): 0.95; SR MES-SA/Dx5 (Table 2) (MES-SA/Dx5 cells [2]; [17]): 4.75; SR (MES-SA/Dx5 cells [2]): 4.75; SR_TQ (MES-SA/Dx5 cells [2]): 0.95; IC50 (KB-v1 cells; absence of Tariquidar): 1.56 ± 0.57 µM; IC50 (KB-v1 cells; [3]): 7.47 µM"

SMILES,IC50 (A431-B1 cells; absence of Tariquidar) [µM],IC50 (A431-B1 cells; [3]) [µM],SR A431-B1 (A431-B1 cells; [4]),SR A431-B1 (A431-B1 cells; [5]),"Fold change in fluorescence (DCFDA) (MES-SA/Dx5 cells [1]; MES-SA/Dx5, 6.25 µM)",Fold change in fluorescence (DCFDA) (MES-SA/Dx5 cells [1]; [6]),"Fold change in fluorescence (DCFDA) (MES-SA/Dx5 cells [1]; MES-SA/Dx5, 12.5 µM)",Fold change in fluorescence (DCFDA) (MES-SA/Dx5 cells [1]; [7]),"Fold change in fluorescence (DCFDA) (MES-SA/Dx5 cells [1]; MES-SA/Dx5, 25 µM)",Fold change in fluorescence (DCFDA) (MES-SA/Dx5 cells [1]; [8]),"Fold change in fluorescence (DCFDA) (MES-SA/Dx5 cells [1]; MES-SA/Dx5, 50 µM)",Fold change in fluorescence (DCFDA) (MES-SA/Dx5 cells [1]; [9]),IC50 (MDCK cells; absence of Tariquidar) [µM],IC50 (MDCK cells; [3]) [µM],Fold change in fluorescence (DCFDA) (MES-SA cells; 6.25 µM),Fold change in fluorescence (DCFDA) (MES-SA cells; [10]),Fold change in fluorescence (DCFDA) (MES-SA cells; 12.5 µM),Fold change in fluorescence (DCFDA) (MES-SA cells; [11]),Fold change in fluorescence (DCFDA) (MES-SA cells; 25 µM),Fold change in fluorescence (DCFDA) (MES-SA cells; [12]),other results
"Oc1cccc2cccnc12 [Compound Q-1, 8-Hydroxyquinoline]",8.21 ± 4.04,7.06,0.31,0.41,1.006± 0.15,1.085± 0.11,0.720± 0.21,1.071± 0.12,0.713± 0.21,0.971± 0.17,0.725± 0.18,0.918± 0.10,3.27 ± 1.24,3.08,0.965± 0.12,1.261± 0.26,0.799± 0.12,1.148± 0.32,0.722± 0.22,1.193± 0.44,Fold change in fluorescence (DCFDA) (MES-SA cells; 50 µM): 0.748± 0.21; Fold change in fluorescence (DCFDA) (MES-SA cells; [13]): 0.912± 0.38; IC50 (MES-SA/Dx5 cells [2]): 2.46 ± 0.69 µM; SR MES-SA/Dx5 (MES-SA/Dx5 cells [2]; [14]): 1.70; SR MES-SA/Dx5 (MES-SA/Dx5 cells [2]; [15]): 1.73; Effect of co-administration of CuCl2 on toxicity (MES-SA/Dx5 cells [2]): increased the toxicity; Effect of co-incubation with iron(III) on cytotoxicity (MES-SA/Dx5 cells [2]): did not influence the cytotoxicity; SR MES-SA/Dx5 (Table 2) (MES-SA/Dx5 cells [2]; [16]): 1.73; SR MES-SA/Dx5 (Table 2) (MES-SA/Dx5 cells [2]; [17]): 1.70; SR (MES-SA/Dx5 cells [2]): 1.70; SR_TQ (MES-SA/Dx5 cells [2]): 1.73; IC50 (KB-v1 cells; absence of Tariquidar): 8.71 ± 4.43 µM; IC50 (KB-v1 cells; [3]): 10.8 µM
